Data published in publication PMC3249654 (The Open Virology Journal, 2011).
Where “and” joins values, the source holds several entries; their conditions need not be identical. Equal entries are not always repeated.

Experiments:
[1] = test system: influenza A(H1N1) viruses; conditions: cited from earlier work
[2] = test system: NA enzyme activity of influenza A(H1N1) viruses; format: biochemical, influenza A(H1N1) virus; conditions: read-out: IC50-values of outliers with reduced zanamivir susceptibility

## CCOC(=O)C1=C[C@@H](OC(CC)CC)[C@H](NC(C)=O)[C@@H](N)C1 [oseltamivir]
[1]
  average prevalence of ORV in Europe: 20.1%

## CC(=O)N[C@H]1[C@H]([C@H](O)[C@H](O)CO)OC(C(=O)O)=C[C@@H]1N=C(N)N [zanamivir]
[2]
  IC50: 3.1 nM and 3.4 nM and 5.3 nM
